Reference: US20250074911A1, “MACROCYCLIC BTK INHIBITORS” (Crossfire Oncology Holding B.V., priority 2021, published 2025)
Values joined by “and” are separate entries in the source; they are usually repeats but may differ in a detail not shown here. Equal entries are not always repeated.

How the values were obtained:
[1] = tested on: wt-REC-1 mantle cell lymphoma cells; experiment: Cell proliferation assay wt-REC-1 (ATPlite, 72 hours); type: cell-based; details: 72 h; read-out: IC50 wt-REC-1
How it was run: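 Luminescent viability read over 72 h, start-of-incubation signal recorded separately to separate growth from cell death. Percentage growth referenced to compound-free 0.3% DMSO wells; IC50 from 4-parameter logistic fit.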

REC-1 T474I cell lines = experiment: Cell proliferation assay REC-1 BTK T474I knock-in cells (ATPlite, 72 hours); type: cell-based; details: Homo sapiens, Rec1; 72 hours; read-out: IC50 REC-1 T474I
How it was run: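 REC-1 cells carrying CRISPR knock-in mutant BTK, single-cell cloned and sequence-confirmed, were exposed to compound for 72 h and read by ATPlite luminescence. Percentage growth was calculated against the signal at the start of incubation and against untreated 0.3% DMSO wells as maximum growth.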

wt-BTK = wt-BTK (Homo sapiens (Human), UniProt Q06187); experiment: Binding kinetics measurements (Surface Plasmon Resonance) on wt-BTK; details: for Kd: binding affinity by Surface Plasmon Resonance (SPR); for Tau (h) wt-BTK (Act): target residence time, SPR
How it was run: (§1)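 Constants come from single-cycle kinetics: five rising compound injections (3.16-316 nM) at 30 μl/min and 22° C over streptavidin-captured BTK (wild type or mutant), running buffer containing 1% DMSO. Double referencing applied; induced-fit binders fitted to a two-state model; duplicates geometrically averaged; residence time derived.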

BTK C481S = BTK C481S (Homo sapiens (Human), UniProt Q06187, C481S); experiment: Binding kinetics measurements (Surface Plasmon Resonance) on BTK C481S; details: for Kd: binding affinity by Surface Plasmon Resonance (SPR); for Tau (h) BTK C418S (Act): target residence time for BTK C481S, SPR
How it was run: as §1

BTK T316A = BTK T316A (Homo sapiens (Human), UniProt Q06187, T316A); experiment: Binding kinetics measurements (Surface Plasmon Resonance) on BTK T316A; details: for Kd: binding affinity by Surface Plasmon Resonance (SPR); for Tau (h) BTK T316A (Act): target residence time, SPR
Procedure: (§2) Binding kinetics measurements on wt-BTK, BTK […], BTK […], BTK […] and BTK […] (Surface Plasmon Resonance) Streptavidin-coated chips (Cat. No. BR100531), disposables and maintenance kits for Biacore were purchased from Cytiva (Eindhoven, The Netherlands). […] Remaining streptavidin was blocked with biocytin. Immobilization was performed at 4° C. Subsequent assay steps were conducted at 22° C. After changing buffer to Biacore buffer with 1% (v/v) dimethylsulfoxide (DMSO), a pre-run was performed for a period of at least 30 min at a flow rate of 30 μl/min to obtain a stable surface. The kinetic constants of the compounds were determined with single cycle kinetics with five consecutive injections with an increasing compound concentration with ranges of 3.16-316 nM. […] To circumvent problems of mass transport limitation, a flow rate of 30 μl/min was used. A blank run with the same conditions was performed before the compound was injected. The SPR sensorgrams were analyzed with Biacore Evaluation Software by using a method of double referencing. First the reference channel was subtracted from the channel containing immobilized protein. Subsequently, the reference curve obtained with buffer injections was subtracted. […] Compounds that bound according to an induced fit model were fitted with a two-state reaction model. The kinetic constants (ka, […], KD) of duplicates were geometrically averaged. […] Target residence for an induced fit model was calculated as described (Tummino and Copeland, 2008).

BTK T474I = BTK T474I (Homo sapiens (Human), UniProt Q06187, T474I); experiment: Binding kinetics measurements (Surface Plasmon Resonance) on BTK T474I; details: for Kd: binding affinity by Surface Plasmon Resonance (SPR)
How it was run: as §1

BTK T474S = BTK T474S (Homo sapiens (Human), UniProt Q06187, T474S); experiment: Binding kinetics measurements (Surface Plasmon Resonance) on BTK T474S; details: for residence time: SPR binding kinetics, BTK T474S, read-out: Tau (h) BTK T474S (Act), target residence time (converted); for Kd: binding affinity by Surface Plasmon Resonance (SPR)
Procedure: as §2

[2] = tested on: wt-TMD8 diffuse large B-cell lymphoma cells; experiment: Cell proliferation assay wt-TMD8 (ATPlite, 120 hours); type: cell-based; details: B-cell; wt-TMD8 cells, 120 hours, ATPlite; read-out: IC50 wt-TMD8
How it was run: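 Readout is percentage growth from ATPlite 1Step luminescence after 5 days (120 h) compound treatment of wt-TMD8 lymphoma cells (1600/well, RPMI-1640 + 10% FBS). Time-zero signal separates growth inhibition from cell kill; 0.3% DMSO wells without compound define maximal growth.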

[3] = biological target: full-length wt-BTK enzyme (Homo sapiens (Human), UniProt Q06187); experiment: Biochemical kinase assay wt-BTK (IMAP)
How it was run: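 Compound and enzyme (final 1.2 nM) were pre-incubated for 1 h at RT, after which the reaction was started with 4 μM ATP plus 50 nM fluorescein-MBP substrate peptide. After 2 h in the dark, the IMAP progressive binding reagent stopped the reaction, and phosphorylation was read by fluorescence polarization.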

[4] = biological target: full-length BTK C481S enzyme (Homo sapiens (Human), UniProt Q06187, C481S); experiment: Biochemical kinase assay BTK C481S (IMAP)
How it was run: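 IC50 values come from IMAP fluorescence polarization after quenching with progressive binding solution. The reaction ran 2 h at room temperature in the dark with 1.2 nM full-length C481S enzyme, 7 μM ATP and 50 nM fluorescein-labelled MBP-derived peptide, following a 1 h dark pre-incubation of compound with enzyme.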

BTK T474I, sequence (Q06187 whole entry T474I): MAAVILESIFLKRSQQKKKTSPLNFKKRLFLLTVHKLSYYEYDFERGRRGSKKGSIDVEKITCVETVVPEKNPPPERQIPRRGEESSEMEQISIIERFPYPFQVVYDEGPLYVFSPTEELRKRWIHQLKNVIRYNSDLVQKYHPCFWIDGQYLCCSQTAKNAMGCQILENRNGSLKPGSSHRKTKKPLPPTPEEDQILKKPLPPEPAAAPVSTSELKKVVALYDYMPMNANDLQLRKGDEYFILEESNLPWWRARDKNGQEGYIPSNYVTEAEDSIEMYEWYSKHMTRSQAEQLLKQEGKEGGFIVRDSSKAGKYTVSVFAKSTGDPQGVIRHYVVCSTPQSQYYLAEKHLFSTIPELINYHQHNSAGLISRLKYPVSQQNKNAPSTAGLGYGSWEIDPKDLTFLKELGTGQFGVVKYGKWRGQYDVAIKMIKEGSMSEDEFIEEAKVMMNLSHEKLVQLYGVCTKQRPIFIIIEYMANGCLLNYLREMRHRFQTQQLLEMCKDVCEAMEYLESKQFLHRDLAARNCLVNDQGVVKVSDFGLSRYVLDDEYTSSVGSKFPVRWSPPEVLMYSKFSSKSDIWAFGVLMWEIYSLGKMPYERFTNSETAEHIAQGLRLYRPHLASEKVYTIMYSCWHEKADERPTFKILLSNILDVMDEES
BTK T316A, sequence (Q06187 whole entry T316A): as the sequence (Q06187 whole entry T474I) above, with T316A, I474T counted along it
wt-BTK, sequence (Q06187 whole entry): as the sequence (Q06187 whole entry T474I) above, with I474T counted along it
full-length wt-BTK enzyme, sequence (Q06187 whole entry): as the sequence (Q06187 whole entry T474I) above, with I474T counted along it
BTK C481S, sequence (Q06187 whole entry C481S): as the sequence (Q06187 whole entry T474I) above, with I474T, C481S counted along it
full-length BTK C481S enzyme, sequence (Q06187 whole entry C481S): as the sequence (Q06187 whole entry T474I) above, with I474T, C481S counted along it
BTK T474S, sequence (Q06187 whole entry T474S): as the sequence (Q06187 whole entry T474I) above, with I474S counted along it

| Structure (SMILES) | IC50 [1] | IC50 (REC-1 T474I cell lines) | Kd (wt-BTK) | Tau (h) wt-BTK (Act) (wt-BTK) | Kd (BTK C481S) | Tau (h) BTK C418S (Act) (BTK C481S) | Kd (BTK T316A) | Tau (h) BTK T316A (Act) (BTK T316A) | Kd (BTK T474I) | residence time (BTK T474S) | Kd (BTK T474S) | IC50 [2] | IC50 [3] | IC50 [4] | Tau (h) BTK T474I (Act) (BTK T474I; target residence time, SPR) |
| --- | --- | --- | --- | --- | --- | --- | --- | --- | --- | --- | --- | --- | --- | --- | --- |
| CC1NC/C=C/c2cnc(N)c3c(-c4ccc(C(=O)Nc5cc(C(F)(F)F)ccn5)cc4)nn(c23)[C@@H]2CCC[C@H](C2)NC1=O (single isomer, unassigned) [Example 146] | < 100 nM | 100 to 500 nM | < 5 nM | 3.88 h | < 5 nM | 5.76 h | < 5 nM | 2.12 h | 10 to 50 nM and < 5 nM | 2.69 h | < 3 nM | < 100 nM | – | – | – |
| Nc1ncc2c3c1c(-c1ccc(C(=O)Nc4cc(C(F)(F)F)ccn4)cc1)nn3[C@@H]1CCC[C@H](C1)NC(=O)COCC/C=C/2 [Example 6] | < 100 nM | 100 to 500 nM | < 5 nM | 6.80 h | < 5 nM | 2.91 h | < 5 nM | 2.28 h | < 2 nM | 4.41 h | < 3 nM | < 100 nM | < 5 nM | < 5 nM | – |
| Nc1ncc2c3c1c(-c1ccc(C(=O)Nc4cc(C(F)(F)F)ccn4)cc1F)nn3[C@@H]1CCC[C@H](C1)NC(=O)CCC/C=C/2 [Example 7] | < 100 nM | 500 to 10000 nM | < 5 nM | 2.57 h | < 5 nM | 4.50 h | < 5 nM | 2.03 h | < 2 nM | 4.98 h | < 3 nM | < 100 nM | < 5 nM | < 5 nM | – |
| Nc1ncc2c3c1c(-c1ccc(C(=O)Nc4cc(C(F)(F)F)ccn4)cc1F)nn3[C@@H]1CCC[C@H](C1)NC(=O)CNC/C=C/2 [Example 8] | 100 to 1000 nM | 500 to 10000 nM | < 5 nM | 2.25 h | < 5 nM | 3.30 h | < 5 nM | 1.30 h | 10 to 50 nM and < 5 nM | 3.17 h | < 3 nM | < 100 nM | < 5 nM | < 5 nM | – |
| C[C@@H]1CCn2nc(-c3ccc(C(=O)Nc4cc(C(F)(F)F)ccn4)cc3)c3c(N)ncc(c32)/C=C/CCCCC(=O)N1 [Example 54] | < 100 nM | 100 to 500 nM | < 5 nM | – | < 5 nM | – | < 5 nM | – | < 2 nM | 4.37 h | < 3 nM | < 100 nM | – | – | – |
| C[C@@H]1CCn2nc(-c3ccc(C(=O)Nc4cc(C(F)(F)F)ccn4)cc3)c3c(N)ncc(c32)/C=C/CSCC(=O)N1 [Example 61] | < 100 nM | – | < 5 nM | 4.95 h | < 5 nM | 7.19 h | < 5 nM | 1.85 h | < 2 nM | 2.48 h | < 3 nM | < 100 nM | < 5 nM | < 5 nM | – |
| Nc1ncc2c3c1c(-c1ccc(C(=O)Nc4cc(C(F)(F)F)ccn4)cc1)nn3[C@@H]1CCC[C@H](C1)NC(=O)CCCC/C=C\C2 [Example 98b] | 100 to 1000 nM | – | < 5 nM | 4.35 h | < 5 nM | 5.98 h | < 5 nM | 3.58 h | 10 to 50 nM and < 5 nM | 4.46 h | < 3 nM | – | < 5 nM | < 5 nM | 1.14 h |
| Nc1ncc2c3c1c(-c1ccc(C(=O)Nc4cc(C(F)(F)F)ccn4)cc1)nn3[C@@H]1CCC[C@H](C1)C(=O)NCCCCCCC2 [Example 115] | 100 to 1000 nM | 100 to 500 nM | < 5 nM | 5.09 h | < 5 nM | 6.25 h | < 5 nM | 2.96 h | 10 to 50 nM and < 5 nM | 3.89 h | < 3 nM | – | < 5 nM | < 5 nM | – |
| Nc1ncc2n3c(nc(-c4ccc(C(=O)Nc5cc(C(F)(F)F)ccn5)cc4)c13)[C@@H]1CCC[C@H](C1)NC(=O)CCCC/C=C/2 [Example 130] | < 100 nM | – | < 5 nM | 2.86 h | < 5 nM | 3.83 h | < 5 nM | 2.22 h | < 2 nM | 1.64 h | < 3 nM | < 100 nM | < 5 nM | < 5 nM | – |
| Nc1ncc2n3c(nc(-c4ccc(C(=O)Nc5cc(C(F)(F)F)ccn5)cc4)c13)[C@@H]1CCC[C@H](C1)NC(=O)CCC/C=C/2 [Example 132] | 100 to 1000 nM | 500 to 10000 nM | < 5 nM | 2.75 h | < 5 nM | 3.96 h | < 5 nM | 1.58 h | < 2 nM | 3.04 h | < 3 nM | – | < 5 nM | < 5 nM | – |
